Measurements from patent US20030099944A1, “Combination therapy involving drugs which target cellular proteins and drugs which target pathogen-encoded proteins” (priority 1998, published 2003).
“Also recorded” adds a separate entry of the source.

Experiments:
HEL cells = test: Cell-cycle progression by FACS analysis, HEL cells; type: cell-based; settings: 20 μM or higher of Rosco
Vero cells = test: Cell-cycle progression by FACS analysis, Vero cells; type: cell-based; settings: 80 μM Rosco
HSV-1 strain KOS [1] = test: HSV-1 replication in HEL cells, standard plaque assay; type: cell-based, herpes simplex virus type 1
HSV-1 strain KOS [2] = test: HSV-1 replication in Vero cells, standard plaque assay; type: cell-based, herpes simplex virus type 1
[3] = tested on: HSV-1 ICP4, TK and ICP8 RNAs; test: RNase protection assay of viral transcripts, infected HEL cells; type: cell-based, herpes simplex virus type 1
Experimental: Levels of GAPDH-, ICP4-, TK-, and ICP8-specific RNAs were measured by standard RNase protection assays (ProtectDirect: Ambion) as recommended by the manufacturer, with minor modifications.
Dried gels were exposed and analyzed in a PhosphoroImager system (Molecular Dynamics).

HSV-1 DNA replication = type: cell-based, herpes simplex virus type 1
[4] = tested on: HSV ts A15 transcripts and proteins; test: E and L gene expression of ts A15 after shift-down (RNase protection, metabolic labeling); type: cell-based, herpes simplex virus type 1; settings: 400 μg/ml PAA or 100 μM Rosco
HIV (strain NL 4-3) = test: HIV replication in CEMX174 cells, p24 levels; type: cell-based, Human Immunodeficiency Virus; settings: for p24 per viable cell: day 4
Description: (§1) CEMX174 cells (a hybrid B/T cell line that supports replication of a spectrum of fresh clinical isolates of HIV) were infected with HIV (strain NL 4-3). […] HIV replication was monitored by measuring p24 levels and viable and nonviable cells were counted on days 2 and 4 pi. On day 4, Rosco-containing medium was removed and replaced with drug-free medium. On day 7, p24 levels and cell counts were repeated.

CEMX174 cells = test: Toxicity for mock-infected CEMX174 cells, cell counts; type: cell-based
Description: as §1

HSV-2 = type: cell-based, herpes simplex virus type 2
vaccinia virus = type: cell-based
[5] = tested on: lymphocoriomeningitis virus (LCMV); type: cell-based
cdk-7 = cdk-7 (Homo sapiens, UniProt P50613); type: biochemical
cdk-8 = cdk-8 (Homo sapiens, UniProt P49336); type: biochemical
[6] = tested on: HSV-1 (KOS wild-type and ACV-resistant TK-); type: cell-based, herpes simplex virus type 1; settings: 24 hours
[7] = tested on: HSV-1 ICP0, ICP4, ICP8, TK and gC transcripts; test: RNase protection assay of viral transcripts, infected Vero cells
[8] = tested on: latent HSV-1 in explanted TG; test: Explant-induced reactivation of latent HSV-1 from trigeminal ganglia; settings: 40 μM Rosco, until 11 days post-explant
HSV-1, strain KOS [9] = test: HSV-1 replication in the eyes of infected ICR mice, topical treatment
HSV-1, strain KOS [10] = test: HSV-induced stromal keratitis in C.AL.20 mice, intramuscular treatment
[11] = tested on: HSV-1 IE, E and L proteins; settings: 100 μM Rosco, 0-6 and 0-12 hpr
[12] = tested on: proteins of mock and HSV-infected cells; type: binding
[13] = Rosco added after release of a 12 hour PAA block

Sequence of cdk-8 (P49336 whole entry, species assumed): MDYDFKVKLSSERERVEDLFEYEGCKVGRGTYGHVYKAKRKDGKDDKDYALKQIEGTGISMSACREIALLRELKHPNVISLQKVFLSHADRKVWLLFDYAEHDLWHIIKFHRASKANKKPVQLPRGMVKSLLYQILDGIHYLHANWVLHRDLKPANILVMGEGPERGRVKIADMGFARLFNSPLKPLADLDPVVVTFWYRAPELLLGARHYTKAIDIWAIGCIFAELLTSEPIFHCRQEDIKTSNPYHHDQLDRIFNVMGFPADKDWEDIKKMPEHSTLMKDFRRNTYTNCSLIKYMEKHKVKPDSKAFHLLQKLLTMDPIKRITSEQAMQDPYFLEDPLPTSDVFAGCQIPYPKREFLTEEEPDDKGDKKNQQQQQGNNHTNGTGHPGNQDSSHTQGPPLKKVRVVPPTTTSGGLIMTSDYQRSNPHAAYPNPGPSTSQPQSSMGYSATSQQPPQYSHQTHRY
Sequence of cdk-8 (P24863 whole entry partner, species assumed): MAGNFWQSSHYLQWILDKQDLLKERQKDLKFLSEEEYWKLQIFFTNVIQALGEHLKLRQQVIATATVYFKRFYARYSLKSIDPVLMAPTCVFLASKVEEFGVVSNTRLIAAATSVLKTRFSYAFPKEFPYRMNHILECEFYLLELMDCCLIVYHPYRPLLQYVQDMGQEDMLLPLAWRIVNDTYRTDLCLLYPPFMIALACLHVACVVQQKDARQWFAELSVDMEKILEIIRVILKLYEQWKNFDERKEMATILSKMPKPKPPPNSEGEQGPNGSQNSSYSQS
Sequence of cdk-7 (P50613 whole entry, species assumed): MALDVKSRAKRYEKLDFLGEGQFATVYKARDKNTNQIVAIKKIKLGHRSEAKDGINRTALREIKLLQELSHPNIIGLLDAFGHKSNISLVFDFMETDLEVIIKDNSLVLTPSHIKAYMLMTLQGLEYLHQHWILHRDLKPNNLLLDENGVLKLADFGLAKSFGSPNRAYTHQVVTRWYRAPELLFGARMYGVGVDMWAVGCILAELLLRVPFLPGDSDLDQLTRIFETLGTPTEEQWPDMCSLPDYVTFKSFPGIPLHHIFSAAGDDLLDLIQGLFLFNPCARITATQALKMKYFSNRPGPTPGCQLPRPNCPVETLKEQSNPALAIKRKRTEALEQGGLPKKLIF
Sequence of cdk-7 (P51946 whole entry partner, species assumed): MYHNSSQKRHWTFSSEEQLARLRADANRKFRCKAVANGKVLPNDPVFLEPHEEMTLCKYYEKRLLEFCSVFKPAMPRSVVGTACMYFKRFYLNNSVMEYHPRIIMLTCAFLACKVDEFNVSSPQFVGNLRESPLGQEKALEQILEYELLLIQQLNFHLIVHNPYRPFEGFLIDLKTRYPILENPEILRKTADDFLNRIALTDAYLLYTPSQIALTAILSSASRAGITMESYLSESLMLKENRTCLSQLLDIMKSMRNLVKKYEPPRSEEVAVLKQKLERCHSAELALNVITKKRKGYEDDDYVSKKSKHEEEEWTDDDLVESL

With `CC[C@H](CO)Nc1nc(NCc2ccccc2)c2ncn(C(C)C)c2n1` [Rosco, Roscovitine] the “cells blocked in G0/G1” value (HEL cells) was “about 85%”, the “cells blocked in G2/M” value (HEL cells) was “about 8%” and the “cells blocked in G0/G1” value (Vero cells) was 85%. For the same compound, the “cells blocked in G2/M” value (Vero cells) was “about 10%”, the “reduction of 24 hour viral yield” value (HSV-1 strain KOS [1]; 40 μM Rosco) was 3 orders of magnitude and the “viral titers 24 hours after release from Rosco block versus untreated cultures” value (HSV-1 strain KOS [1]; 40 μM Rosco removed at 24 hours pi) was “approached”. The “effect on HSV replication, single-cycle growth” value (HSV-1 strain KOS [1]; 24 hours, 40 μM Rosco, 75 μM iso-Olo, 20 μM Lova, 5 ng/ml staurosporine, 70 μM PD98059) was “blocked HSV replication almost completely”, the “inhibition of viral replication” value (HSV-1 strain KOS [2]; 100 μM Rosco added at 1 or 3 hours pi) was “almost total” and the “HSV titers at 24 hours pi lower than in untreated cultures” value (HSV-1 strain KOS [2]; 100 μM Rosco added at 6, 9, or 12 hours pi) was “approximately 2.5 orders of magnitude”. The “viral replication when drug added at release from a 12 hour PAA block” value (HSV-1 strain KOS [2]; 100 μM Rosco, 24 hours after release) was “inhibited viral replication efficiently”, the “inhibition of HSV replication as a function of multiplicity” value (HSV-1 strain KOS [2]; 0.1 to 10 PFU/cell, 100 μg/ml PAA or 100 μM Rosco, 24 hours) was “efficiently at all multiplicities tested” and the “reduction of 24 hour viral yield” value (HSV-1 strain KOS [2]; Vero cells, 100 μM Rosco) was 4 orders of magnitude. For the same compound, the “viral titers 24 hours after release from Rosco block versus untreated cultures” value (HSV-1 strain KOS [2]; Vero cells, 100 μM Rosco removed at 24 hours pi) was “reached”, the “HSV-1 replication when drug added after removal of CHX at 6 hours pi” value (HSV-1 strain KOS [2]; Vero cells, 100 μM Rosco, 24 hours after change of medium) was “inhibited HSV-1 replication efficiently” and the “accumulation of TK and ICP8 mRNAs” value ([3]; 40 μM Rosco or 75 μM Olo, 5, 8 and 12 hours pi) was “reduced”. The “expression of immediate-early ICP4 mRNA” value ([3]; 40 μM Rosco or 75 μM Olo, as early as 2 hours pi) was “greatly impaired”, the “inhibition of HSV DNA replication after release from 12 hour PAA block” value (HSV-1 DNA replication) was “inhibited HSV DNA replication efficiently; also recorded: less efficiently” and the “accumulation of L proteins” value ([4]; 16 or 24 hours post release) was “significantly lower levels”. For the same compound, the “levels of E proteins, including ICP8 and TK” value ([4]; 16 or 24 hours post release) was “little or no measurable effect”, the “steady-state levels of ICP8 and TK transcripts” value ([4]; 16 hours after shift-down) was “slight increase” and the “inhibition of HIV replication” value (HIV (strain NL 4-3); 5 μM Rosco) was “more than 10 fold”. For the same compound, the “p24 per viable cell” value (HIV (strain NL 4-3); 5 μM Rosco) was about 1000 pg p24/cell, the “inhibition of HIV replication” value (HIV (strain NL 4-3); 10 μM Rosco) was 100 fold and the “inhibition of HIV replication” value (HIV (strain NL 4-3); 15 μM Rosco) was about 1000 fold. The “p24 per viable cell” value (HIV (strain NL 4-3); 10, 15 and 30 μM Rosco) was “undectable”, the “p24 levels after drug removal on day 4” value (HIV (strain NL 4-3); cultures previously treated with 5 and 10 μM Rosco) was “returned to the level of the no drug control” and the “p24 levels after drug removal on day 4” value (HIV (strain NL 4-3); cultures treated with 15 and 30 μM Rosco) was “remained low”. For the same compound, the “toxicity for mock-infected cells” value (CEMX174 cells; 30 μM Rosco) was “toxic”, the “toxicity for mock-infected cells” value (CEMX174 cells; 5, 10 or 15 μM Rosco) was “not” and the “replication of two HSV-2 strains” value (HSV-2) was “inhibited”. The “replication of vaccinia virus” value (vaccinia virus) was “did not inhibit replication”, the “replication of LCMV” value [5] was “did not inhibit replication” and the “phosphorylation of RNA PolII by cdk-7” value (cdk-7) was “inhibited”. The “phosphorylation of RNA PolII by cdk-8” value (cdk-8) was “not phosphorylation by cdk-8”, the “enhancement of inhibition of HSV replication by ACV” value ([6]; 10 μM Rosco with ACV) was “approximately 0.3 Logs” and the “enhancement of efficacy of ACV” value ([6]; 30 μM Rosco, all ACV concentrations) was “approximately 1 Log”. The “levels of the transcripts of two E genes (ICP8, TK)” value [7, 13] was “no dramatic effect”, the “steady-state levels of ICP0 transcripts” value [7, 13] was “decreased” and the “further accumulation of immediate early transcripts (ICP0, ICP4)” value ([7]; change to 100 μM Rosco after 6 hours in CHX) was “significant reduction”. The “levels of early transcripts (ICP8, TK)” value ([7]; change to 100 μM Rosco after 6 hours in CHX, compared to PAA or control medium) was “reduced”, the “TG from which HSV reactivated” value [8] was “none” and the “effect on HSV replication in the eye” value (HSV-1, strain KOS [9]; 71, 35.5 and 17.7 μg/eye topical, twice daily until day 4 pi) was “inhibited HSV replication”. For the same compound, the “virus shed, less than control animals” value (HSV-1, strain KOS [9]; after day 4, pooled doses, 15 animals) was “approximately 10 fold”, the “treated animals that had stopped shedding virus” value (HSV-1, strain KOS [9]; by day 7 pi) was “more than 25%” and the “treated animals that had stopped shedding virus” value (HSV-1, strain KOS [9]; by day 9 pi) was “more than 75%”. For the same compound, the “corneas with only minor lesions, microscopic post-mortem evaluation” value (HSV-1, strain KOS [10]; 36 days pi) was 6 of 9, the “corneas with severe lesions, post-mortem” value (HSV-1, strain KOS [10]; 36 days pi) was “two” and the “corneas with opacity scored above 2” value (HSV-1, strain KOS [10]; day 11 pi, 11.33 μg IM twice daily for 11 days) was “none”. The “corneas with opacity scored above 2” value (HSV-1, strain KOS [10]; day 36 pi) was “one”, the “deleterious effect on the treated animals” value (HSV-1, strain KOS [10]; doses used in these experiments) was “did not have any obvious deleterious effect” and the “difference in average corneal score between Rosco-treated and control groups” value (HSV-1, strain KOS [10]; end of the experiment) was “more than 2 score points”. For the same compound, the “day on which average weight returned to original weight” value (HSV-1, strain KOS [10]; mouse, in vivo) was 14 day pi and the “E and L proteins after release from CHX block” value [11] was “No E or L proteins were detected”.
In the case of Purvalanol, the “proteins bound in affinity binding assays” value [12] is reported as “cdk-1, -2, -7, erks-1, -2, and cycA” and the “enhancement of efficacy of ACV treatment” value ([6]; 6 μM Purv with ACV) is reported as “approximately 0.5 Log”.
